The source made the active and inactive calls.
Columns and labels:
[1] = biological target: Cytochrome P450 2D6 (Homo sapiens, UniProt P10635);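 note: CYP2D6 member of a cytochrome P450 panel assay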
[2] = biological target: T1, Heat shock factor protein 1 (Mus musculus, UniProt P38532); assay: enhancement of HSF1-driven luciferase signal – cell-based, NIH3T3, luminescence, dose retest, confirmation (AID 435004); format: functional;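 note: stress induced by proteasome inhibitor MG132 added 30 min after compound; luciferase reporter driven by HSF1 response element in NIH3T3 cells; actives raise luminescence as potentiators of the MG132 stress response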
T1 sequence (P38532 whole entry): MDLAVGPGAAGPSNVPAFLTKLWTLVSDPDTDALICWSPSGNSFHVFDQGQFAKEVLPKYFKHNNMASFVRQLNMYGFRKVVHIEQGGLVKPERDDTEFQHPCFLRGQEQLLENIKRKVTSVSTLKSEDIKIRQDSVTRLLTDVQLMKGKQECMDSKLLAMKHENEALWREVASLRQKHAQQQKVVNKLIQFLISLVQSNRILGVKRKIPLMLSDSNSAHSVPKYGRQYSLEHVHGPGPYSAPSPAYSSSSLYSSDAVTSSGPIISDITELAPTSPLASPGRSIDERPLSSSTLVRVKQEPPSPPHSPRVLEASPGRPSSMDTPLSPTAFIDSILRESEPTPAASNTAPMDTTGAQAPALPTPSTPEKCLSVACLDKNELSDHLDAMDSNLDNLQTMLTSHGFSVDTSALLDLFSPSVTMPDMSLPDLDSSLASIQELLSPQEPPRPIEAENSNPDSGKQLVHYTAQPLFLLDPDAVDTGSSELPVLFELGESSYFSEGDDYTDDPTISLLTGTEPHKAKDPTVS

[3] = biological target: T2, Rac GTPase-activating protein 1 (Homo sapiens, UniProt Q9H0H5); assay: blockers of MgcRacGAP-driven Rac1 GTP hydrolysis – biochemical, ADP Hunter fluorescence, primary and confirmatory, confirmation (AID 624330); format: functional
T2 sequence (Q9H0H5 whole entry): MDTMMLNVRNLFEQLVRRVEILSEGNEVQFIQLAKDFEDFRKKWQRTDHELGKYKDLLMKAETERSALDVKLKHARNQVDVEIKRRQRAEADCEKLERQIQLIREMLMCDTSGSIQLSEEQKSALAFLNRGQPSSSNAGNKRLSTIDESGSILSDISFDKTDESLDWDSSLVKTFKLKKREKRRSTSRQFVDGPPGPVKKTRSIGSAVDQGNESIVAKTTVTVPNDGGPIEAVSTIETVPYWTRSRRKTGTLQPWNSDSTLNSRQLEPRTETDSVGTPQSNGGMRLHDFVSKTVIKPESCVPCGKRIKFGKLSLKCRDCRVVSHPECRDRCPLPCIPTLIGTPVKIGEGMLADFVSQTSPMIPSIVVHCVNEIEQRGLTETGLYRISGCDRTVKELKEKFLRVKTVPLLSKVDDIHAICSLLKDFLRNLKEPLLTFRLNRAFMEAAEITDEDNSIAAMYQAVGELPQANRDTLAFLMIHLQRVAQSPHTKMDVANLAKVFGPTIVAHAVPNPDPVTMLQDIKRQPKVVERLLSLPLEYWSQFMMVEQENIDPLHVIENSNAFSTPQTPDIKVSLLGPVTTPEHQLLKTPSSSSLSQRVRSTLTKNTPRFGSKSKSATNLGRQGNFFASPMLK

[4] = biological target: Cytochrome P450 2C9 (Homo sapiens, UniProt P11712)
Cytochrome P450 2C9, sequence (P11712 whole entry): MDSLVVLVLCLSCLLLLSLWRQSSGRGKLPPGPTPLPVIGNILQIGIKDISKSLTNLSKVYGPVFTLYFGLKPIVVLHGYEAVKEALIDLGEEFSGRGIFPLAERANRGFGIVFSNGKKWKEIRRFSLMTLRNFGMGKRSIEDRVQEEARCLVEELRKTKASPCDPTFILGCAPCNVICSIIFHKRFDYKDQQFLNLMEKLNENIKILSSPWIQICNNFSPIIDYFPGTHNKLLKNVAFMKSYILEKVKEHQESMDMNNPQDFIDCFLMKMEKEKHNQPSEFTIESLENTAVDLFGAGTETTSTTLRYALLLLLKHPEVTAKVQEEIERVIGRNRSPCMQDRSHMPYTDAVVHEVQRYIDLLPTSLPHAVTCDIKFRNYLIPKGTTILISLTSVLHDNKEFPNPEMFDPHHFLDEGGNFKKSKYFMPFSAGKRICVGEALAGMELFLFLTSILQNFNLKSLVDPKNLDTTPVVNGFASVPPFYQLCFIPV

[5] = biological target: T1, Heat shock factor protein 1; assay: decrease of HSF1-responsive luciferase luminescence – cell-based, NIH3T3, dose retest, confirmation (AID 2382); format: functional;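 note: NIH3T3 fibroblasts with HSF1-driven luciferase reporter stressed by proteasome inhibitor MG132; luminescence from HSF1-driven luciferase expression after 8 hours of MG132 stress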
[6] = luciferase reporter signal suppression in cells – H4 neuroglioma cells, luminescence, dose response (AID 1990); format: functional, cell-based
[7] = alpha-synuclein stem-loop luciferase translation blockers – H4 neuroglioma cells, luminescence, confirmation (AID 1988); format: functional, cell-based
[8] = Luminescence Cell-Based Dose Response HTS to Identify Inhibitors of 5'UTR Stem-Loop Driven Prion Protein mRNA Translation in H4 Neuroglioblastoma Cells. [Related pubchem assays: 1827 (Project Summary), 1813 (Primary HTS)]; format: functional
[9] = viability of uninfected HEp-2 cells – cell-based, HTS, cytotoxicity control for RSV inhibitor project, dose response (AID 2410); format: functional; conditions: human respiratory syncytial virus
[10] = biological target: Cytochrome P450 2C19 (Homo sapiens, UniProt P33261); assay: Cytochrome panel assay with activity outcomes. Panel member name: p450-cyp2c19 Compounds with AC50 equal or less than 10 uM are considered active; format: functional; conditions: read-out: AC50
Cytochrome P450 2C19, sequence (P33261 whole entry): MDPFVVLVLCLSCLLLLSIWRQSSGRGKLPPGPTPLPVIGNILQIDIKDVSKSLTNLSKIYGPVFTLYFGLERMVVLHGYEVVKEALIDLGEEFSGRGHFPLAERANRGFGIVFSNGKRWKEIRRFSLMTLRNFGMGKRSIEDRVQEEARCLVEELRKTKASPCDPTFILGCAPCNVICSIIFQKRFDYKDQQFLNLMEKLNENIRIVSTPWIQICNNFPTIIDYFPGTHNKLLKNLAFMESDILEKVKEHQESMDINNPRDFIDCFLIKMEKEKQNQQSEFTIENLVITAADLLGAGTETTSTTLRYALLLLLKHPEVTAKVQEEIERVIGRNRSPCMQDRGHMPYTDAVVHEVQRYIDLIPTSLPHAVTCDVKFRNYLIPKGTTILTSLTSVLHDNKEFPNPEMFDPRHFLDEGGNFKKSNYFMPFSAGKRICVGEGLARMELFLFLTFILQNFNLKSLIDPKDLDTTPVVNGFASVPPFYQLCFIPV

[11] = Trypanosoma cruzi growth suppression in host cells – NIH3T3 host cells, beta-gal luminescence, confirmation (AID 2044); format: functional, cell-based;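 note: intracellular parasites grown in NIH/3T3 mouse fibroblasts as host cells; luminescent beta-galactosidase reporter signal from transgenic T. cruzi replicating inside host cells; inhibitors lower the luminescence signal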
[12] = NIH3T3 cell viability loss – ATP luminescence, mouse fibroblasts, counter-screen, dose response (AID 2010); format: functional, cell-based;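 note: cells exposed to compound for about 90 hours before reading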

Cytochrome P450 2D6, sequence (P10635 whole entry): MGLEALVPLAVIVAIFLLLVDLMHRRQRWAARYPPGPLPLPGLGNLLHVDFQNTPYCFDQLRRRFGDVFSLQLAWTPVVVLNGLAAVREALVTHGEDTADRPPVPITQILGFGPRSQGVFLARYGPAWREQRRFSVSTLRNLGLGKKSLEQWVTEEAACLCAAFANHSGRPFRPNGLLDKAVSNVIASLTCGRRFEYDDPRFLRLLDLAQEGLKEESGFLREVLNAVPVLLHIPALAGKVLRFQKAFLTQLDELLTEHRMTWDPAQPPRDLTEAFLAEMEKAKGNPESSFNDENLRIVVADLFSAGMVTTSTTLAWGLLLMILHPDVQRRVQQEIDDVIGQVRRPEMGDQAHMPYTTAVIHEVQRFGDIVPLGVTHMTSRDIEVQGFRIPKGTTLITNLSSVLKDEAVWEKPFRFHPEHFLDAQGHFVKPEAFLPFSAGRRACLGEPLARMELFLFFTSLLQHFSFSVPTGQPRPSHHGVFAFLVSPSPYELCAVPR

Structure (SMILES): CN1CCN(c2ccc([N+](=O)[O-])cc2NC(=O)c2ccccc2Cl)CC1
- AC50 [1]: 17.8 µM (inconclusive)

Structure (SMILES): CC(C)N(Cc1ccccc1)C(=O)COC(=O)/C=C/c1cnc2ccccc2n1
- EC50 [2]: 23 µM (active)

Structure (SMILES): Cc1cc(/C=C(/C#N)c2cccc(Cl)c2)c(C)n1C
- EC50 [2]: > 260 µM (inactive)

Structure (SMILES): Oc1ccc(/C=N/NC(=S)N2CCOCC2)cc1
- IC50 [3]: 63.7 µM (active)

Structure (SMILES): Oc1ccc(N2CCN(C(c3cccs3)c3nnnn3CCc3ccccc3)CC2)cc1 (centres undefined)
- IC50 [3]: 47.3 µM (active)

Structure (SMILES): Nc1nc(SC/C=C\c2ccccc2)c2nc[nH]c2n1
- AC50 [4]: 3.98 µM (inconclusive)
- AC50 [1]: 3.16 µM (inconclusive)

Structure (SMILES): O=C1CN(C(=O)COc2c(Cl)cccc2Cl)c2ccccc2N1
- EC50 [5]: > 195 µM (not active)

Structure (SMILES): COc1cccc(CN2CCN(C(=O)c3ccco3)CC2)c1OC
- IC50 [3]: 163 µM (active)

Structure (SMILES): Cc1nccn1Cc1cccc2ccccc12
- EC50 [5]: > 195 µM (not active)

Structure (SMILES): c1ccc2oc(C3=NCCN3)cc2c1
- AC50 [1]: 39.8 µM (inconclusive)

Structure (SMILES): CC[C@@H](C)[C@H](NC(=O)Cc1c(C)c2cc3c(C)c(C)oc3c(C)c2oc1=O)C(=O)O
- EC50 [5]: > 195 µM (not active)

Structure (SMILES): COc1ccc(N2CCN(c3ncccc3C#N)CC2)cc1
- IC50 [3]: 157 µM (active)

Structure (SMILES): O=C(CN1C(=O)/C(=C\c2cccc(Cl)c2)Sc2ccccc21)NCCCN1CCOCC1
- EC50 [2]: 245 µM (active)

Structure (SMILES): CCN(CC)S(=O)(=O)c1ccc(C(=O)NN(C)C2=NS(=O)(=O)c3ccccc32)cc1
- EC50 [2]: > 260 µM (inactive)

Structure (SMILES): Cc1cc(=O)oc2c(C)c(OC(C)C(=O)NCC(O)c3ccccc3)ccc12 (centres undefined)
- EC50 [2]: > 260 µM (inactive)

Structure (SMILES): CC(=O)Nc1ccc(-c2nnn(CC(=O)Nc3ccc4c(c3)OCO4)n2)cc1Cl
- EC50 [5]: > 195 µM (not active)

Structure (SMILES): COc1ccc(C(=O)N2CCN(CCCc3ccccc3)CC2)cc1OC
- IC50 [3]: 123 µM (active)

Structure (SMILES): COc1ccc(NC(=O)C(=O)NCC(c2ccco2)N2CCc3ccccc32)cc1 (centres undefined)
- EC50 [6]: 104 µM (active)
- EC50 [7]: 0.11 µM (active)
- EC50 [8]: 0.127 µM (active)

Structure (SMILES): Cc1ccc(C(=O)Nc2ccc3c(c2)C(=O)NC3=O)cc1
- EC50 [5]: > 195 µM (not active)

Structure (SMILES): Cc1cccc(N/N=C(\C=O)C(=O)c2ccc(Br)cc2)c1
- EC50 [2]: > 260 µM (inactive)

Structure (SMILES): O=[N+]([O-])c1cc([N+](=O)[O-])c(N2CCOCC2)cc1NCc1ccccc1
- EC50 [2]: > 260 µM (inactive)

Structure (SMILES): CC(/C=N/n1c(S)nnc1-c1ccco1)=C\c1ccccc1
- IC50 [3]: 108 µM (active)

Structure (SMILES): COc1ccc(CNC(=O)COc2cc3c(c4oc(=O)cc(C)c24)CCC(C)(C)O3)cc1OC
- CC50 [9]: > 50 µM (active)

Structure (SMILES): CCc1ccc(-c2nc(C[S+]([O-])CC(=O)NCc3cccnc3)c(C)o2)cc1 (centres undefined)
- EC50 [5]: > 195 µM (not active)

Structure (SMILES): CSC1=NN(c2ccccc2)CN(c2ccccc2)N1C
- IC50 [3]: 75.6 µM (active)

Structure (SMILES): O=C(CSc1nnc(-c2ccccc2)c(-c2ccccc2)n1)N1CCc2ccccc21
- EC50 [2]: > 260 µM (inactive)

Structure (SMILES): CCCCNCCOCCOc1ccccc1-c1ccccc1
- EC50 [5]: > 195 µM (not active)

Structure (SMILES): CC(C)c1nc2oc3c(NCc4ccccn4)ncnc3c2c2c1COC(C)(C)C2
- EC50 [6]: 33 µM (active)
- EC50 [7]: 16.7 µM (active)
- EC50 [8]: > 120 µM (not active)

Structure (SMILES): CCC(CC)C(=O)Nc1cccc(C(=O)Nc2ccc(OC)cc2[N+](=O)[O-])c1
- AC50 [4]: 0.891 µM (inconclusive)
- AC50 [10]: 0.316 µM (inconclusive)

Structure (SMILES): C=CCn1c(C)nnc1SCC(=O)Nc1nc(C)c(C(=O)N(C)C)s1
- EC50 [5]: > 195 µM (not active)

Structure (SMILES): Fc1cc(F)cc(-c2oncc2-c2nnnn2-c2ccccc2)c1
- EC50 [5]: > 195 µM (not active)

Structure (SMILES): O=C(O)CCC1(C(=O)O)OCCc2ccccc21 (centres undefined)
- EC50 [5]: > 195 µM (not active)

Structure (SMILES): CCC(CO)NCC#Cc1ccccc1 (centres undefined)
- EC50 [2]: > 260 µM (inactive)

Structure (SMILES): Cc1c(C)c2ccc(OS(C)(=O)=O)c(C)c2oc1=O
- CC50 [9]: > 50 µM (active)

Structure (SMILES): Cn1nc(-c2ccccc2)c(C(=O)Nc2ccc(Cl)cc2)c1Cl
- AC50 [4]: 0.141 µM (inconclusive)
- AC50 [10]: 2 µM (inconclusive)

Structure (SMILES): COc1ccc(C2C(C#N)=C(N)N(c3ccccc3)C3=C2C(=O)CCC3)cc1Cn1cc([N+](=O)[O-])cn1 (centres undefined)
- EC50 [6]: 13.2 µM (active)
- EC50 [7]: 105 µM (active)
- EC50 [8]: 17.1 µM (active)

Structure (SMILES): CC(C)[C@H](N)c1nnc(SC/C=C/c2ccccc2)o1
- AC50 [4]: 0.0562 µM (inconclusive)
- AC50 [1]: 35.5 µM (inconclusive)

Structure (SMILES): c1ccc2c(c1)nnn1c3ccccc3nc21
- EC50 [2]: > 260 µM (inactive)

Structure (SMILES): CCCCCSc1nc2c(c(=O)[nH]c(=O)n2C)n1C(C)C
- EC50 [6]: > 120 µM (not active)
- EC50 [7]: 12.5 µM (active)
- EC50 [8]: 16.5 µM (active)

Structure (SMILES): O=c1c(-c2ccccc2Cl)c[nH]n1-c1ccccc1
- IC50 [3]: 97.4 µM (active)

Structure (SMILES): Cc1cc(Oc2ccc(-c3ccccc3)cc2)n2ncnc2n1
- IC50 [3]: 22.7 µM (active)

Structure (SMILES): CCCC[C@@H]1C[C@H]1C(NC(=O)Cc1ccccc1)c1ccc(Cl)cc1 (some centres undefined)
- AC50 [4]: 1.26 µM (inconclusive)
- AC50 [1]: 7.94 µM (inconclusive)

Structure (SMILES): COc1ccc(NC(=O)CSc2nc(N)c3cc4c(nc3n2)CCCC4)cc1
- EC50 [2]: 53.3 µM (active)

Structure (SMILES): CCOC(=O)c1cnc2ccc(C(=O)OC)cc2c1NCCCN1CCOCC1
- EC50 [5]: > 195 µM (not active)

Structure (SMILES): COc1cccc(Nc2nc(N)nc(C(F)(F)F)n2)c1
- CC50 [9]: 20.4 µM (active)

Structure (SMILES): COc1cccc(NC(=O)CCSc2nnc3scc(-c4ccccc4)n23)c1
- EC50 [5]: > 195 µM (not active)

Structure (SMILES): C/C(=N\NC(=O)c1nnn(-c2nonc2N)c1C(C)C)c1cc(C)sc1C
- CC50 [9]: > 50 µM (active)

Structure (SMILES): Cc1ccc(OCC(=O)N2CCN(c3ccc([N+](=O)[O-])c(N4CCOCC4)c3)CC2)cc1
- AC50 [1]: 12.6 µM (inconclusive)

Structure (SMILES): O=C(Nc1cccc2ccccc12)C12CC3CC(C1)CC(n1cnc([N+](=O)[O-])n1)(C3)C2
- EC50 [6]: 12.9 µM (active)
- EC50 [7]: > 60 µM (not active)
- EC50 [8]: 12.4 µM (active)

Structure (SMILES): O=S(=O)(Nc1cccc(-n2cnnn2)c1)c1cc(Cl)ccc1Cl
- EC50 [5]: > 195 µM (not active)

Structure (SMILES): O=S(=O)(c1ccccc1)N1CCCC(c2nc(O)c3nnn(Cc4ccc5c(c4)OCCO5)c3n2)C1 (centres undefined)
- CC50 [9]: 16.9 µM (active)

Structure (SMILES): COC(=O)C(c1ccccc1)C1(O)CC(C)N(C)CC1C (centres undefined)
- EC50 [5]: > 195 µM (not active)

Structure (SMILES): CCOc1cc(/C=N/NC(=O)c2cc(-c3ccccc3)nc3ccccc23)ccc1O
- CC50 [9]: 31.8 µM (active)

Structure (SMILES): CCCC[C@@H]1C[C@H]1C(NC(=O)c1cccnc1)c1ccc(Cl)cc1 (some centres undefined)
- AC50 [1]: 25.1 µM (inconclusive)

Structure (SMILES): ON=C1c2ccccc2-c2ccccc21
- EC50 [2]: > 260 µM (inactive)

Structure (SMILES): Cc1cccc(OC2CCN(Cc3nc(CC4CC4)no3)CC2)c1
- EC50 [6]: > 120 µM (not active)
- EC50 [7]: 55.7 µM (active)
- EC50 [8]: > 120 µM (not active)

Structure (SMILES): Cc1cc(N2CCN(C)CC2)ccc1NC(=O)c1cccc(S(=O)(=O)N2CCc3ccccc3C2)c1
- EC50 [11]: 1.43 µM (active)
- EC50 [6]: 9.2 µM (active)
- EC50 [7]: > 120 µM (not active)
- EC50 [12]: 8.5 µM (active)
- EC50 [8]: > 120 µM (not active)

Structure (SMILES): CSc1ccccc1C(=O)N1CCN(c2ncccn2)CC1
- EC50 [5]: > 195 µM (not active)

Source: ChEMBL document CHEMBL1201862, “PubChem BioAssay data set” (2004)
